Test results taken from US20220401390A1, “TREATMENTS OF DIABETIC MACULAR EDEMA AND IMPAIRED VISUAL ACUITY” (KALVISTA PHARMACEUTICALS LIMITED, priority 2019, published 2022).

Columns and labels:
Type in all cases: in vivo, human
[1] = system: subjects with ciDME who have had prior anti-VEGF treatment; experiment: Study 2: sham-controlled monthly intravitreal injections, BCVA (ETDRS) efficacy; set-up: BCVA (letters): any loss from baseline, Diff. v. sham / BCVA: ≥5 letter loss from baseline, Diff. v. sham / BCVA: ≥10 letter loss from baseline, Diff. v. sham / BCVA: ≥15 letter loss from baseline, Diff. v. sham: unit not given here; conditions: for BCVA: ≥10 letter loss from baseline, Diff. v. sham / BCVA: ≥15 letter loss from baseline, Diff. v. sham / BCVA (letters): any loss from baseline, Diff. v. sham / BCVA: ≥5 letter loss from baseline, Diff. v. sham: week 16
Excerpt: To investigate monthly dosing of intravitreal (IVT) injection of the compound of Formula A in subjects with ciDME who have had prior anti-VEGF treatment. In particular, to evaluate any effect on the efficacy in the treatment, prevention, or prevention of worsening of ciDME in subjects who have had prior anti-VEGF treatment.
(§1) This study was a randomized, sham-controlled, double-masked, 3-arm study into efficacy, safety and tolerability of monthly intravitreal injections of the compound of Formula A as a monotherapy in adult subjects with ciDME. The subjects had all had prior anti-VEGF treatment.
129 adult subjects were chosen using the following inclusion criteria: • 1. Male or female adult subjects 18 years of age and older. • 2. Confirmed diagnosis of Type I or Type II diabetes mellitus (DM). Any of the following were sufficient: • a. Current regular use of insulin for the treatment of diabetes • b. Current regular use of oral anti-hyperglycemia agents for the treatment of diabetes • c. Documented diabetes by American Diabetes Association and/or World Health Organization (VVHO) criteria. • 3. Best Corrected Visual Acuity (BCVA), using Standard Early Treatment Diabetic Retinopathy Study (ETDRS) chart, of ≥19 letters (˜20/400) and ≤73 letters (˜20/40) in the study eye and ≥34 letters (˜20/200 or better) in the fellow eye at Screening and Day 1. • 4. Presence of ciDME in the study eye defined as Heidelberg Spectralis Optical Coherence Tomography (SD-OCT) CST ≥305 μm in women and ≥320 μm in men in the study eye (as assessed at Screening by the Investigator and Central Image Reading Center (CIRC) and on Day 1 by the Investigator). • 5. Subjects' first anti-VEGF injection in the study eye occurred 36 months prior to Day 1. • 6. Subjects received at least 3 anti-VEGF injections in the study eye within a 6-month period within the 36 months prior to Day 1. • 7. Subject's' last anti-VEGF injection in the study eye was 8 weeks prior to Day 1. • 8. Subjects, who in the view of the Investigator, were able to defer treatment in the study eye for at least 6 months following Day 1. • 9. […] Provide signed informed consent and were willing and capable of complying with clinic visits and study procedures.
(§2) The 129 eligible subjects were randomized approximately 1:1:1 into three arms: • 1. Arm 1, N=44: • Received injections of 3 μg/eye (100 μL injection volume at a concentration of 30 μg/mL) of the compound of formula A; • 2. Arm 2, N=41: • Received injections of 6 μg/eye (100 μL injection volume at a concentration of 60 μg/mL) of the compound of formula A; and • 3. Arm 3, N=44: • Received a sham procedure; during a 12-week, double-masked treatment period (a total of 4 doses given at approximately monthly intervals).
Subjects visited the study clinic on Day 1 and Weeks 4, 8, and 12 during the Treatment Phase for study drug administration or sham procedure, safety, and ophthalmic assessments.
The ophthalmic assessments were carried out in approximately the following order at the subjects' visits to the study clinic on Day 1, and Weeks 4, 8 and 12: • BCVA (must be performed prior to all other ophthalmic procedures) • Slit lamp biomicroscopy • Pre-Injection IOP/IOP at visits with no study drug administration (must be done prior to dilation) • Dilated indirect ophthalmoscopy • Fundus photography • SD-OCT • Intravitreal injection • Post-Injection IOP
All subjects visited the clinic at Weeks 16, 20, and 24 after the last study drug administration or sham procedure for safety and ophthalmic assessments. The visit window for Weeks 16, 20, and 24 is ±7 days.
The assessment measured change from baseline in BCVA letter count in the study eye at Week 16. Change from baseline in BCVA letter count is calculated as Week 16 BCVA letter count minus Day 1 BCVA letter count such that a negative difference indicates a worsening in vision. […]

[2] = system: subjects with ciDME who have had prior anti-VEGF treatment; experiment: Study 2: local and systemic safety and tolerability
Excerpt: To evaluate the local and systemic safety and tolerability of monthly dosing of the injections of the compound of Formula A in subjects with ciDME who had had prior anti-VEGF treatment.
as §1, §2
Approximately twenty-four (24) hours after each study drug administration or sham procedure on Day 1 and Weeks 4, 8, and 12, subjects were contacted by telephone to evaluate any reported AEs and changes in concomitant medications. In the event of any reported ocular or systemic AEs that were considered by the Investigator to be a possible cause for concern, the subjects returned to the clinic for assessment as soon as possible. • 3. Follow up Phase:
Safety variables of interest in this study are: • AEs; • Ophthalmic and physical findings; • Laboratory test results (clinical chemistry, hematology, and urinalysis); • Vital signs (SBP, DBP, PR, and respiratory rate).

[3] = system: subjects with center involved diabetic macular edema; experiment: Study 1: pharmacodynamic effect (visual acuity, retinal thickness); conditions: Day 84, 10 μg dose

CCOc1ccc(C[C@@H](NC(=O)c2ccccc2)C(=O)N[C@@H](Cc2ccccc2)C(=O)NCc2ccc(CN)cc2)cc1 [compound of Formula A, N—[(R)-1-[(S)-1-(4-Aminomethyl-benzylcarbamoyl)-2-phenyl-ethylcarbamoyl]-2-(4-ethoxy-phenyl)-ethyl]-benzamide]
BCVA improvement (letters), change versus sham, mean ([1]; 3 μg, 4 weeks, positive value is improvement): 0.6 letters
BCVA improvement (letters), change versus sham, mean ([1]; 3 μg, 8 weeks, positive value is improvement): 1.2 letters
BCVA improvement (letters), change versus sham, mean ([1]; 3 μg, 12 weeks, positive value is improvement): 3.8 letters
BCVA improvement (letters), change versus sham, mean ([1]; 3 μg, 16 weeks, positive value is improvement): 1.5 letters
BCVA improvement (letters), change versus sham, mean ([1]; 3 μg, 20 weeks, positive value is improvement): −1.2 letters
BCVA improvement (letters), change versus sham, mean ([1]; 3 μg, 24 weeks, positive value is improvement): −0.7 letters
BCVA (letters): any loss from baseline, (%) ([1]; 3 μg, week 16, n = 44): (50.0) %
BCVA: ≥5 letter loss from baseline, (%) ([1]; 3 μg, week 16, n = 44): (25.0) %
BCVA: ≥10 letter loss from baseline, (%) ([1]; 3 μg, week 16, n = 44): (9.1) %
BCVA: ≥15 letter loss from baseline, (%) ([1]; 3 μg, week 16, n = 44): (4.5) %
BCVA: ≥10 letter loss from baseline, Diff. v. sham ([1]; 3 μg, p-value 0.228): −11.4
BCVA: ≥15 letter loss from baseline, Diff. v. sham ([1]; 3 μg, p-value 0.4336): −6.8
BCVA (letters): any loss from baseline, Diff. v. sham ([1]; 3 μg, p-value 0.6695): −4.5
BCVA: ≥5 letter loss from baseline, Diff. v. sham ([1]; 3 μg, p-value 0.8083): −2.3
Improvement in BCVA (letters) score compared to sham after the treatment period (in words) ([1]; 6 μg doses, through to the 24 week time period): maintained
BCVA improvement (letters), change versus sham, mean ([1]; 6 μg, all subjects, 4 weeks, positive value is improvement): 0.9 letters
BCVA improvement (letters), change versus sham, mean ([1]; 6 μg, all subjects, 8 weeks, positive value is improvement): 1.1 letters
BCVA improvement (letters), change versus sham, mean ([1]; 6 μg, all subjects, 12 weeks, positive value is improvement): 2.9 letters
BCVA improvement (letters), change versus sham, mean ([1]; 6 μg, all subjects, 16 weeks, positive value is improvement): 2.6 letters
BCVA improvement (letters), change versus sham, mean ([1]; 6 μg, all subjects, 20 weeks, positive value is improvement): 2.0 letters
BCVA improvement (letters), change versus sham, mean ([1]; 6 μg, all subjects, 24 weeks, positive value is improvement): 2.1 letters
BCVA improvement (letters), change versus sham, mean ([1]; 6 μg, early stage subjects (baseline BCVA >55 letters), 4 weeks): 2.3 letters
BCVA improvement (letters), change versus sham, mean ([1]; 6 μg, early stage subjects (baseline BCVA >55 letters), 8 weeks): 1.8 letters
BCVA improvement (letters), change versus sham, mean ([1]; 6 μg, early stage subjects (baseline BCVA >55 letters), 12 weeks): 4.7 letters
BCVA improvement (letters), change versus sham, mean ([1]; 6 μg, early stage subjects (baseline BCVA >55 letters), 16 weeks): 4.9 letters
BCVA improvement (letters), change versus sham, mean ([1]; 6 μg, early stage subjects (baseline BCVA >55 letters), 20 weeks): 3.5 letters
BCVA improvement (letters), change versus sham, mean ([1]; 6 μg, early stage subjects (baseline BCVA >55 letters), 24 weeks): 2.9 letters
BCVA (letters): any loss from baseline, (%) ([1]; 6 μg, week 16, n = 41): (32.5) %
BCVA: ≥5 letter loss from baseline, (%) ([1]; 6 μg, week 16, n = 41): (20.0) %
BCVA: ≥10 letter loss from baseline, (%) ([1]; 6 μg, week 16, n = 41): (5.0) %
BCVA: ≥15 letter loss from baseline, (%) ([1]; 6 μg, week 16, n = 41): (0) %
BCVA (letters): any loss from baseline, Diff. v. sham ([1]; 6 μg, p-value 0.0421): −22.0
BCVA: ≥10 letter loss from baseline, Diff. v. sham ([1]; 6 μg, p-value 0.0516): −15.5
BCVA: ≥15 letter loss from baseline, Diff. v. sham ([1]; 6 μg, p-value 0.0565): −11.4
BCVA: ≥5 letter loss from baseline, Diff. v. sham ([1]; 6 μg, p-value 0.4344): −7.3
Average improvement in BCVA score of early stage patients versus overall population (in words) ([1]; baseline BCVA greater than 55 letters, every measurement taken): consistently better average improvement in BCVA score than the overall average population score
Progression of DME or impaired visual acuity (in words) ([1]; subjects that had previously had anti-VEGF treatment): slowing of the progression
AEs that led to discontinuation ([2]; 6 μg arm): one retinal neovascularization
Severity of reported adverse events (AEs) ([2]; majority of reported AEs, all arms): mild
Subjects in whom the treatment was safe and well-tolerated ([2]; monthly intravitreal injections, 3 μg or 6 μg): > 99%
Mean improvement in visual acuity [3]: 5.5 letters
